Results on 22 compounds are retold here after patent US20120165319A1, “INHIBITORS OF INTERLEUKIN-1 BETA CONVERTING ENZYME” (VERTEX PHARMACEUTICALS INCORPORATED, priority 1995, published 2012).

The target in experiment [1] is T1, ICE (Homo sapiens, UniProt P29466).
T1 sequence (P29466 120-297 limits assumed): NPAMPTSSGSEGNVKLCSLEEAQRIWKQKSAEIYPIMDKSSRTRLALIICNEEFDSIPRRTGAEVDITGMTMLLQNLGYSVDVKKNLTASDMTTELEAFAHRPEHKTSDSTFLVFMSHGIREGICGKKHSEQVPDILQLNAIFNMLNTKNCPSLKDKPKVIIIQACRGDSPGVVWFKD
T1 sequence (P29466 317-404 limits assumed): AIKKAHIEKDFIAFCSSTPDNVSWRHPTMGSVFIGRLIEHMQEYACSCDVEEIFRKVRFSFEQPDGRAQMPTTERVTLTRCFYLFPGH
As to the kind of experiment: Enzyme assay with UV-visible substrate (visible ICE assay, Succinyl-Tyr-Val-Ala-Asp-pNitroanilide). It is filed as biochemical. The procedure, abridged: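 Human ICE was preincubated with inhibitor in DMSO and buffer for 15 min at room temperature, then succinyl-Tyr-Val-Ala-Asp-pNA was added. pNA release was followed at 405-603 nm for 20 min at 37° C. Ki and inhibition mode came from fitting rates to standard kinetic equations.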

Experiment [2] has as its system IL-1β, human peripheral blood mononuclear cells (PBMC). In words: PBMC cell assay: IL-1β assay with human PBMC or enriched adherent mononuclear cells, LPS-stimulated. It is filed as cell-based. The procedure, abridged:
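Buffy-coat human PBMC at 6×10^6 cells/ml, or adherent monocytes enriched by 1 h adherence (2.5−3.0×10^5 cells/well), are given 5–6 compound dilutions bracketing the ICE Ki (final DMSO 0.1%) plus LPS at a final 5 ng/ml. They are incubated 16–18 hr at 37 °C, 5% CO2, and supernatant mature IL-1β is measured by ELISA, with duplicate cultures and duplicate ELISAs.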

For experiment [3], the system named is IL-1β, human whole blood. As to the kind of experiment: Whole blood assay for IL-1β production. It is filed as cell-based. The settings on record: read-out: Whole human blood IC50. As to the method:
The whole blood assay is a simple method for measuring the production of IL-1b (or other cytokines) and the activity of potential inhibitors. The complexity of this assay system, with its full complement of lymphoid and inflammatory cell types, spectrum of plasma proteins and red blood cells is an ideal in vitro representation of human in vivo physiologic conditions.
Pyrogen-free syringes (˜30 cc) Pyrogen-free sterile vacuum tubes containing lyophilized Na2EDTA (4.5 mg/10 ml tube) Human whole blood sample (˜30-50 cc) 1.5 ml eppendorf tubes Test compound stock solutions (˜25 mM in DMSO or other solvent) Endotoxin-free sodium chloride solution (0.9%) and HBSS Lipopolysaccharide (Sigma; Cat. # L-3012) stock solution at 1 mg/ml in HBSS
IL-1β ELISA Kit (R & D Systems; Cat # DLB50)
TNFα ELISA Kit (R & D Systems; Cat # DTA50)
Whole Blood Assay Experimental Procedure:
Set incubator or water bath at 30° C. Aliquot 0.25 ml of blood into 1.5 ml eppendorf tubes. Note: be sure to invert the whole blood sample tubes after every two aliquots. Differences in replicates may result if the cells sediment and are not uniformly suspended. Use of a positive displacement pipette will also minimize differences between replicate aliquots.
Prepare drug dilutions in sterile pyrogen-free saline by serial dilution. A dilution series which brackets the apparent Ki for a test compound determined in an ICE inhibition assay is generally used for the primary compound screen.
Add 25 μl test compound dilution or vehicle control and gently mix the sample. Then add 5.0 μl LPS solution (250 ng/ml stocked prepared fresh: 5.0 ng/ml final concentration LPS), and mix again. Incubate the tubes at 30° C. in a water bath for 16-18 hr with occasional mixing. Alternatively, the tubes can be placed in a rotator set at 4 rpm for the same incubation period. This assay should be set up in duplicate or triplicate with the following controls: negative control—no LPS; positive control—no test inhibitor; vehicle control—the highest concentration of DMSO or compound solvent used in the experiment. Additional saline is added to all control tubes to normalize volumes for both control and experimental whole blood test samples
After the incubation period, whole blood samples are centrifuged for 10 minutes at ˜2000 rpm in the microfuge, plasma is transferred to a fresh microfuge tube and centrifuged at 1000×g to pellet residual platelets if necessary. Plasma samples may be stored frozen at −70° C. prior to assay for cytokine levels by ELISA.
We have used R & D Systems (614 McKinley Place N.E. Minneapolis, Minn. 55413) Quantikine kits for measurement of IL-1β and TNF-α. The assays are performed according to the manufacturer's directions.
We have observed IL-1β levels of ˜1-5 ng/ml in positive controls among a range of individuals. A 1:200 dilution of plasma for all samples has been sufficient in our experiments for ELISA results to fall on the linear range of the ELISA standard curves. It may be necessary to optimize standard dilutions if you observe differences in the whole blood assay. Nerad, J. L. et al., J. Leukocyte Biol., 52, pp. 687-692 (1992).

Setting [4] is: * = values obtained upon reassay.
The mark [5] stands for this setting: Homo sapiens, PBMC, * = values obtained upon reassay.
Where [6] appears, read: Homo sapiens, * = values obtained upon reassay.

Like-named read-outs stand apart in the source and are kept apart here.

For orientation: Ki means the equilibrium dissociation constant of an inhibitor or competing ligand from its target. A low value points to higher affinity. Broadly, the IC50 is the point on the concentration scale where inhibition reaches its midpoint.

As to `Cn1c(C(=O)N[C@H]2CCC(=O)N3CCC[C@@H](C(=O)N[C@H](C=O)CC(=O)O)N3C2=O)cc2ccccc21` [Compound 433], the affinity in experiment [1] (Table 5) corresponds to a Ki of 2.9 nM. In addition, the IC50 in experiment [2] (setting [4]) is 1100 nM; in experiment [2] (setting [5]) it was 1000 nM; in experiment [3] (setting [6]) it was 1100 nM.
The compound `COc1cccc(OC)c1C(=O)C(=O)N[C@H]1CCC(=O)N2CCC[C@@H](C(=O)N[C@H](C=O)CC(=O)O)N2C1=O` [Compound 501] had a Ki in experiment [1] (Table 17) of 2.5 nM. The IC50 was determined as 1800 nM in experiment [2] (Homo sapiens, PBMC, Table 17) and 1600 nM in experiment [3] (Homo sapiens, Table 17).
Consider `Cc1nc(-c2ccc(C(F)(F)F)cc2)sc1C(=O)N[C@H]1CCC(=O)N2CCC[C@@H](C(=O)N[C@H](C=O)CC(=O)O)N2C1=O` [Compound 468], for which, in experiment [1] (Table 5), the Ki was 4.5 nM. The IC50 in experiment [2] (setting [5]) turned out to be 850 nM; in experiment [3] (setting [6]) it was 2500 nM.
Consider `CC(=O)N1C[C@H](NC(=O)c2cccc3ccccc23)C(=O)N(CC(=O)N[C@H](C=O)CC(=O)O)c2ccccc21` [Compound 621], for which, in experiment [1] (Table 5), the Ki amounted to 7.2 nM. Also, the IC50 was 1300 nM in experiment [2] (setting [5]) and more than 20000 nM in experiment [3] (setting [6]).
Taken in the same sequence, the figures for `Cc1c(Cl)cccc1C(=O)N[C@H]1CCC(=O)N2CCC[C@@H](C(=O)N[C@H](C=O)CC(=O)O)N2C1=O` [Compound 465] were 3 nM, 1000 nM and 800 nM.
In experiment [1] (Table 17), `CC(=O)N1C[C@H](NC(=O)C(=O)c2ccc3c(c2)OCO3)C(=O)N(CC(=O)N[C@H](C=O)CC(=O)O)c2ccccc21` [Compound 702] registered a Ki of 45 nM. For the same compound, the IC50 in experiment [2] (Homo sapiens, PBMC, Table 17) was more than 5000 nM; in experiment [3] (Homo sapiens, Table 17), 20000 nM.
Take `Nc1cc2ccccc2cc1C(=O)N[C@H]1CCC(=O)N2CCC[C@@H](C(=O)N[C@H](C=O)CC(=O)O)N2C1=O` [Compound 440]: the Ki in experiment [1] (Table 5) stood at 2.3 nM. Moreover, the IC50 was found to be 5000 nM in experiment [2] (setting [5]) and 2000 nM in experiment [3] (setting [6]).
`COc1ccc(C(=O)N[C@H]2CN(C(=O)CO)c3ccccc3N(CC(=O)N[C@H](C=O)CC(=O)O)C2=O)cc1` [Compound 912]: the Ki in experiment [1] (Table 17) worked out at 10 nM. Moreover, the IC50 in experiment [2] (Homo sapiens, PBMC, Table 17) came to 4200 nM; in experiment [3] (Homo sapiens, Table 17), 3800 nM.
The compound `O=C[C@H](CC(=O)O)NC(=O)[C@@H]1CCCN2C(=O)CC[C@H](NC(=O)c3ccc4nn[nH]c4c3)C(=O)N12` [Compound 432] showed a Ki in experiment [1] (Table 5) of 1.6 nM. The IC50 in experiment [2] (setting [5]) is 560 nM; in experiment [3] (setting [6]) it was 2000 nM.
The compound `COCC(=O)N1C[C@H](NC(=O)c2cc(Cl)c(O)c(Cl)c2)C(=O)N(CC(=O)N[C@H](C=O)CC(=O)O)c2ccccc21` [Compound 689a, (3S)-3-[(3S)-2-Oxo-3-(3,5-dichloro-4-hydroxybenzoyl)amino-5-methoxyacetyl-2,3,4,5-tetrahydro-1H-1,5-benzodiazepine-1-acetylamino]-4-oxo-butyric acid] gave a Ki in experiment [1] (Table 17) of 0.8 nM. Also, the IC50 in experiment [2] (Homo sapiens, PBMC, Table 17) worked out at 910 nM; in experiment [3] (Homo sapiens, Table 17), 2500 nM.
On to `COc1cc(C(=O)N[C@H]2CCC(=O)N3CCC[C@@H](C(=O)N[C@H](C=O)CC(=O)O)N3C2=O)nc2ccccc12` [Compound 437], for which, in experiment [1] (Table 5), the Ki is 12 nM. For the same compound, the results for the IC50 in experiment [2] (setting [5]) and in experiment [3] (setting [6]) were 1800 nM and 5000 nM, respectively.
As to `CC(C)(C)OC(=O)C[C@@H](C=NOCc1c(Cl)cccc1Cl)NC(=O)[C@@H]1CCCN2C(=O)CC[C@H](NC(=O)c3ccccc3)C(=O)N12` [Compound 307a, [3S(1S,9S)3-(9-Benzoylamino-6,10-dioxo-1,2,3,4,7,8,9,10-octahydro-6H-pyridazino-[1,2-a][1,2]diazapine-1-carboxamido)-amino]-4-oxobutanoicacid t-butyl ester, O-(2,6-dichlorophenylmethyl)oxime], in experiment [1] (Table 5), the Ki worked out at 55 nM. For the same compound, the IC50 in experiment [2] (setting [4]) was found to be 14500 nM; in experiment [3] (setting [4]), 16000 nM.
For `O=C[C@H](CC(=O)O)NC(=O)[C@@H]1CCCN2C(=O)CCN(NC(=O)C(=O)c3c[nH]c4ccccc34)C(=O)N12` [Compound 1108], the Ki in experiment [1] (Table 17) is 22 nM. The IC50 was determined as 1400 nM in experiment [2] (Homo sapiens, PBMC, Table 17) and 2600 nM in experiment [3] (Homo sapiens, Table 17).
Taken in the same sequence, the figures for `CN(C)c1ccc(C(=O)N[C@H]2CN(C(=O)CO)c3ccccc3N(CC(=O)N[C@H](C=O)CC(=O)O)C2=O)cc1` [Compound 913] were 4.5 nM, 2400 nM and 7000 nM.
Compound `CC(=O)OCC(=O)N1C[C@H](NC(=O)c2ccccc2)C(=O)N(CC(=O)N[C@H](C=O)CC(=O)O)c2ccccc21` [Compound 683, (3S)-3-[(3S)-2-Oxo-3-benzoylamino-5-(2-acetoxy)acetyl-2,3,4,5-tetrahydro-1H-1,5-benzodiazepine-1-acetylamino]-4-oxo-butyric acid] returned a Ki in experiment [1] (Table 17) of 400 nM. The IC50 in experiment [2] (Homo sapiens, PBMC, Table 17) was more than 20000 nM; in experiment [3] (Homo sapiens, Table 17), more than 20000 nM.
In turn, `CC(=O)N1C[C@H](NC(=O)c2ccc3c(c2)OCO3)C(=O)N(CC(=O)N[C@H](C=O)CC(=O)O)c2ccccc21` [Compound 628] returned a Ki in experiment [1] (Table 5) of 36 nM. Also, the results for the IC50 in experiment [2] (setting [5]) and in experiment [3] (setting [6]) were 2750 nM and more than 20000 nM, respectively.
Compound `O=C[C@H](CC(=O)O)NC(=O)[C@@H]1CCCN2C(=O)CC[C@H](NC(=O)c3c(Cl)cccc3Cl)C(=O)N12` [Compound 444] came in with a Ki in experiment [1] (Table 5) of 15 nM. Moreover, the IC50 in experiment [2] (setting [5]) and in experiment [3] (setting [6]) was 3500 nM in each case.
Regarding `COCC(=O)N1C[C@H](NC(=O)C(=O)c2ccccc2)C(=O)N(CC(=O)N[C@H](C=O)CC(=O)O)c2ccccc21` [Compound 642, (3S)-3-[(3S)-2-Oxo-3-benzoylformylamino-5-methoxyacetyl-2,3,4,5-tetrahydro-1H-1,5-benzodiazepine-1-acetylamino]-4-oxo-butyric acid], affinity in experiment [1] (Table 17) was put at a Ki of 35 nM. The IC50 in experiment [2] (Homo sapiens, PBMC, Table 17) amounted to 8000 nM; in experiment [3] (Homo sapiens, Table 17), 2900 nM.
Taken in the same sequence, the figures for `COc1ccc(C(=O)C(=O)N[C@H]2CN(C(C)=O)c3ccccc3N(CC(=O)N[C@H](C=O)CC(=O)O)C2=O)cc1` [Compound 704] were 30 nM, 2600 nM and 9800 nM.
In experiment [1] (Table 5), `O=C[C@H](CC(=O)O)NC(=O)CN1C(=O)[C@@H](NC(=O)c2ccccc2)CN(C(=O)CCc2ccccc2)c2ccccc21` [Compound 605a, (3S)-3-[(3S)-2-oxo-3-benzoylamino-5-(3-phenylpropionyl)-2,3,4,5-tetrahydro-1H-1,5-benzodiazepin-1-acetylamino-]4-oxo-butyric acid] registered a Ki of 90 nM. In addition, the IC50 was 2600 nM in experiment [2] (setting [5]) and more than 20000 nM in experiment [3] (setting [6]).
Turning to `COc1ccc(C(=O)N[C@H]2CCC(=O)N3CCC[C@@H](C(=O)N[C@H](C=O)CC(=O)O)N3C2=O)cc1Cl` [Compound 497], the affinity in experiment [1] (Table 5) corresponds to a Ki of 3.5 nM. The IC50 in experiment [2] (setting [5]) worked out at 740 nM; in experiment [3] (setting [4]), 700 nM; in experiment [3] (setting [6]), 350 nM.
Regarding `CCn1nc(C)cc1C(=O)N[C@H]1CCC(=O)N2CCC[C@@H](C(=O)N[C@H](C=O)CC(=O)O)N2C1=O` [Compound 422], the affinity in experiment [1] (Table 5) corresponds to a Ki of 50 nM. The IC50 came out at 2200 nM in experiment [2] (setting [5]) and 1200 nM in experiment [3] (setting [6]).
